Patent US20030033631A1, “Method for reducing pest damage to corn by treating transgenic corn seeds with thiamethoxam pesticide” (Monsanto Technology, L.L.C., priority 2000, published 2003)

System: western and northern corn rootworm
Experiment: Field trial of corn rootworm feeding damage to corn roots (Iowa 1-6 rating)
Assay type: in vivo
Settings: Cry3Bb.11231 transgenic corn seeds treated with thiamethoxam (300 or 400 gm AI/100 kg seed) compared with transgenic seeds without pesticide treatment, Iowa 1-6 root rating
Text: Field trials for the determination of efficacy of transgenic event Cry3Bb.11231 in corn seed in combination with corn root worm pesticide seed treatments against western and northern corn rootworm.
Field trials can be run in accordance with pertinent protocols and in conformance with USDA notification requirements. The purpose of the trials is to determine the efficacy of transgenic event Cry3Bb.11231 in corn seed in combination with corn root worm seed treatments against western and northern corn root worm.
For each growing site that is selected, the plot design would included the following:
The following seed treatment combinations can be used for each growing area: […]
The determination of damage by corn rootworm can be made according to the following protocol. […] In that system, the root systems of 10 corn plants per plot are recovered and scored using the 1-6 rating scale, where: 1=no injury or only a few minor feeding scars, 2=feeding injury evident, but no roots eaten back to 1½ inches of the plant, 3=at least one root eaten off to within 1½ inches of the plant, but never an entire node of roots destroyed, 4=one node of roots eaten back to within 1½ inches of the plant, 5=two nodes (circles) of roots eaten back to within 1½ inches of the plant, 6=three nodes (circles) of roots eaten back to within 1½ inches of the plant.

CN1COCN(Cc2cnc(Cl)s2)/C1=N\[N+](=O)[O-] [thiamethoxam, 3-[(2-chloro-5-thiazolyl)mehthyl]tetrahydro-5-methyl-N-nitro-4H-1,3,5-oxadiazin-4-imine]
resistance to corn rootworm damage: more resistant to corn rootworm damage than the transgenic seeds without such pesticide treatment
